Experiments:
UGT = assay: Effect of inhibitors on buprenorphine-glucuronide formation in LS180 cells; conditions: buprenorphine 10 μM
Experimental: Unless otherwise indicated, the in vitro experiments described in the following section were conducted using human colon adenocarcinoma LS180 cells.
Human intestinal cells (LS180) were cultured in Dulbecco's modified Eagle's medium (DMEM) supplemented with 10% fetal bovine serum and 1% non-essential amino acids in microplates. […] The cells were rinsed with DPBS, aspirated, and the solutions (37° C.) were added to the cells and incubated for 2 hours. The reactions were stopped and protein was precipitated by adding 20% acetonitrile. After freezing (−80° C.) and thawing, samples were centrifuged and analyzed by HPLC using an Alltima HP C18 column (4.6×100 mm, 3 μm) with gradient elution (mobile phase A: acetonitrile; mobile phase B: 10% acetonitrile, 90% aqueous 25 mM ammonium acetate; 0-78% A) followed by detection by fluoresence (excitation 283 nm, emission 346 nm) and quantitation using Waters Empower 2 software. Results were analyzed by one-way ANOVA with Dunnett's post-test (control vs. inhibitors); asterisk designates p<0.05; n.d. designates not detected.

[1] = in words; cited from earlier work
[2] = inhibitor 100 μM, 2 hours, vs control, p<0.05, n.d. = glucuronide not detected
[3] = single inhibitors 24 μM, pairs 12 μM each, triple 8 μM each, p<0.05

Compound	formation of buprenorphine glucuronide (UGT; [2])	formation of buprenorphine glucuronide (UGT; [3])	oral bioavailability [1]
COc1cc(/C=C/C(=O)CC(=O)/C=C/c2ccc(O)c(OC)c2)ccc1O [curcumin]	not detected		
CCOc1cc(C2OCC(C)O2)ccc1O (stereo not shown) [ethyl vanillin propylene glycol acetal]	significantly decreased		
CCOc1cc(C=O)ccc1O [ethyl vanillin]	significantly decreased		
C=CCc1ccc(O)c(OC)c1 [eugenol]	significantly decreased		
COc1ccccc1O [guaiacol]	significantly decreased		
CC=Cc1ccc(O)c(OC)c1 [isoeugenol]	not detected	significantly inhibited	
C=CCc1ccc(O)c(-c2cc(CC=C)ccc2O)c1 [magnolol]	significantly decreased		
COC(=O)c1ccc(O)cc1 [methylparaben]	trend toward a decrease		
C=CCN1CC[C@]23c4c5ccc(O)c4O[C@H]2C(=O)CC[C@@]3(O)[C@H]1C5 [naloxone]			low
CCCOC(=O)c1cc(O)c(O)c(O)c1 [propyl gallate]	not detected	significantly inhibited	
CCCOC(=O)c1ccc(O)cc1 [propylparaben]	significantly decreased		
O=c1c(O)c(-c2ccc(O)c(O)c2)oc2cc(O)cc(O)c12 [quercetin]	not detected		
CC(=O)CCc1ccc(O)cc1 [rasketone]	significantly decreased		
Oc1ccc(C=Cc2cc(O)cc(O)c2)cc1 [resveratrol]	not detected		
COc1cc(C2Oc3cc([C@H]4Oc5cc(O)cc(O)c5C(=O)[C@@H]4O)ccc3OC2CO)ccc1O (stereo partly shown) [silybin]	significantly decreased		
COc1cc(C=O)ccc1O [vanillin]	significantly decreased	significantly inhibited	
COc1cc(CCC(C)=O)ccc1O [zingerone]	significantly decreased		
COc1c(O)cc2oc3cc(O)c(CC=C(C)C)c(O)c3c(=O)c2c1CC=C(C)C [α-mangostin]	significantly decreased		
pinoresinol	not detected		
